The values below are quoted from earlier work in patent US9168226B1, “Injectable particle” (priority 2015, dated 2015).

The structures appear in SMILES notation. Converted amounts (≈) assume the structure as drawn. Like-named read-outs stand apart in the source and are kept apart here.

As usually defined, the aqueous solubility is the concentration that dissolves in the medium under given conditions. Take `Cc1nc(Nc2ncc(C(=O)Nc3c(C)cccc3Cl)s2)cc(N2CCN(CCO)CC2)n1` [dasatinib, Dasatinib]: the aqueous solubility reads like this: (pH 2.6) 18400 µg/mL (≈ 37.7 mM); (pH 6.0) 8 µg/mL (≈ 0.0164 mM).
